Assay results taken from patent US12501900B2, “Heterocyclyl pyridazine as fungicidal compounds” (Bayer Aktiengesellschaft, priority 2018, dated 2025).

How the values were obtained:
[1] = LogP determination; format: physicochemical; settings: reversed phase HPLC column; method [a]
[2] = tested on: Alternaria brassicae; experiment: In vivo preventive test on Alternaria brassicae (leaf spot on radish or cabbage); settings: 144 h, 500 ppm of active ingredient, preventive spray on radish or cabbage, evaluated 6 days after inoculation, read-out: efficacy
Procedure: Example: In Vivo Preventive Test on Alternaria brassicae (Leaf Spot on Radish or Cabbage)
(§1) • Solvent: 5% by volume of Dimethyl sulfoxide • 10% by volume of Acetone • Emulsifier: 1 μl of Tween® 80 per mg of active ingredient
(§2) The active ingredients were made soluble and homogenized in a mixture of Dimethyl sulfoxide/Acetone//Tween®80 and then diluted in water to the desired concentration.
The young plants of radish or cabbage were treated by spraying the active ingredient prepared as described above. Control plants were treated only with an aqueous solution of Acetone/Dimethyl sulfoxide/Tween® 80.
After 24 hours, the plants were contaminated by spraying the leaves with an aqueous suspension of Alternaria brassicae spores. The contaminated radish or cabbage plants were incubated for 6 days at 20° C. and at 100% relative humidity.
The test was evaluated 6 days after the inoculation. 0% means an efficacy which corresponds to that of the control plants while an efficacy of 100% means that no disease was observed.

[3] = tested on: Botrytis cinerea; experiment: In vivo preventive test on Botrytis cinerea (grey mould); settings: 500 ppm of active ingredient, preventive spray on gherkin or cabbage, evaluated 4 to 5 days after inoculation, read-out: efficacy
Procedure: Example: In Vivo Preventive Test on Botrytis cinerea (Grey Mould)
as §1, §2
The young plants of gherkin or cabbage were treated by spraying the active ingredient prepared as described above. Control plants were treated only with an aqueous solution of Acetone/Dimethyl sulfoxide/Tween® 80.
After 24 hours, the plants were contaminated by spraying the leaves with an aqueous suspension of Botrytis cinerea spores. The contaminated gherkin plants were incubated for 4 to 5 days at 17° C. and at 90% relative humidity. The contaminated cabbage plants were incubated for 4 to 5 days at 20° C. and at 100% relative humidity.
The test was evaluated 4 to 5 days after the inoculation. 0% means an efficacy which corresponds to that of the control plants while an efficacy of 100% means that no disease was observed.

[4] = tested on: Pyrenophora teres; experiment: In vivo preventive test on Pyrenophora teres (net blotch on barley); settings: 240 h, 500 ppm of active ingredient, preventive spray on barley, evaluated 10 days after inoculation, read-out: efficacy
Procedure: Example: In Vivo Preventive Test on Pyrenophora teres (Net Blotch on Barley)
as §1, §2
The young plants of barley were treated by spraying the active ingredient prepared as described above. Control plants were treated only with an aqueous solution of Acetone/Dimethyl sulfoxide/Tween®80.
After 24 hours, the plants were contaminated by spraying the leaves with an aqueous suspension of Pyrenophora teres spores. The contaminated barley plants were incubated for 48 hours at 20° C. and at 100% relative humidity and then for 8 days at 20° C. and at 70-80% relative humidity.
The test was evaluated 10 days after the inoculation. 0% means an efficacy which corresponds to that of the control plants while an efficacy of 100% means that no disease was observed.

[5] = tested on: Septoria tritici; experiment: In vivo preventive test on Septoria tritici (leaf spot on wheat); settings: Zymoseptoria tritici, in Triticum aestivum; 500 ppm of active ingredient; preventive spray on wheat; evaluated 19 days after inoculation; read-out: efficacy
Procedure: Example: In Vivo Preventive Test on Septoria tritici (Leaf Spot on Wheat)
as §1, §2
The young plants of wheat were treated by spraying the active ingredient prepared as described above. Control plants were treated only with an aqueous solution of Acetone/Dimethyl sulfoxide/Tween®80.
After 24 hours, the plants were contaminated by spraying the leaves with an aqueous suspension of Septoria tritici spores. The contaminated wheat plants were incubated for 72 hours at 17° C. and at 100% relative humidity and then for 15 days at 20° C. and at 90% relative humidity.
The test was evaluated 19 days after the inoculation. 0% means an efficacy which corresponds to that of the control plants while an efficacy of 100% means that no disease was observed.

[6] = tested on: Sphaerotheca fuliginea; experiment: In vivo preventive test on Sphaerotheca fuliginea (powdery mildew on cucurbits); settings: Podosphaera fuliginea, 192 h; 500 ppm of active ingredient; preventive spray on gherkin; evaluated 8 days after inoculation; read-out: efficacy
Procedure: Example: In Vivo Preventive Test on Sphaerotheca fuliginea (Powdery Mildew on Cucurbits)
as §1, §2
The young plants of gherkin were treated by spraying the active ingredient prepared as described above. Control plants were treated only with an aqueous solution of Acetone/Dimethyl sulfoxide/Tween® 80.
After 24 hours, the plants were contaminated by spraying the leaves with an aqueous suspension of Sphaerotheca fuliginea spores. The contaminated gherkin plants were incubated for 8 days at 20° C. and at 70-80% relative humidity.
The test was evaluated 8 days after the inoculation. 0% means an efficacy which corresponds to that of the control plants while an efficacy of 100% means that no disease was observed.

[7] = tested on: Colletotrichum lindemuthianum; experiment: In vivo preventive test on Colletotrichum lindemuthianum (leaf spot on bean); settings: 168 h, 500 ppm of active ingredient, preventive spray on bean, evaluated 7 days after inoculation, read-out: efficacy
Procedure: Example: In Vivo Preventive Test on Colletotrichum lindemuthianum (Leaf Spot on Bean)
as §1, §2
The young plants of bean were treated by spraying the active ingredient prepared as described above. Control plants were treated only with an aqueous solution of Acetone/Dimethyl sulfoxide/Tween® 80.
After 24 hours, the plants were contaminated by spraying the leaves with an aqueous suspension of Colletotrichum lindemuthianum spores. The contaminated bean plants were incubated for 24 hours at 20° C. and at 100% relative humidity and then for 6 days at 20° C. and at 90% relative humidity.
The test was evaluated 7 days after the inoculation. 0% means an efficacy which corresponds to that of the control plants while an efficacy of 100% means that no disease was observed.

[8] = tested on: Alternaria alternata; experiment: Alternaria alternata in vitro cell test; format: cell-based; settings: 120 h, 20 ppm of active ingredient, liquid culture, 5 days incubation, read-out: efficacy (inhibition of fungal growth)
Procedure: (§3) Example: Alternaria alternata In Vitro Cell Test • Solvent: DMSO • Culture medium: 14.6 g anhydrous D-glucose (VWR), 7.1 g Mycological Peptone (Oxoid), 1.4 g granulated Yeast Extract (Merck), QSP 1 liter • Inoculum: spores suspension Fungicides were solubilized in DMSO and the solution used to prepare the required range of concentrations. The final concentration of DMSO used in the assay was ≤1%. A spore suspension of A. alternata was prepared and diluted to the desired spore density. Fungicides were evaluated for their ability to inhibit spore germination and mycelium growth in liquid culture assay. The compounds were added in the desired concentration to the culture medium with spores. After 5 days incubation, fungi-toxicity of compounds was determined by spectrometric measurement of mycelium growth. Inhibition of fungal growth was determined by comparing the absorbance values in wells containing the fungicides with the absorbance in control wells without fungicides.

[9] = tested on: Colletotrichum lindemuthianum; experiment: Colletotrichum lindemuthianum in vitro cell test; format: cell-based; settings: 144 h, 20 ppm of active ingredient, liquid culture, 6 days incubation, read-out: efficacy (inhibition of fungal growth)
Procedure: as §3, with “Example: Colletotrichum lindemuthianum” for “Example: Alternaria alternata”, “of C. lindemuthianum” for “of A. alternata”, “inhibit spores” for “inhibit spore”, “After 6” for “After 5”

[10] = tested on: Septoria tritici; experiment: Septoria tritici in vitro cell test; format: cell-based; settings: Zymoseptoria tritici, 168 h; 20 ppm of active ingredient; liquid culture, 7 days incubation; read-out: efficacy (inhibition of fungal growth)
Procedure: as §3, with “Example: Septoria tritici” for “Example: Alternaria alternata”, “g Bacteriological” for “g Mycological”, “(Oxoid), •” for “(Oxoid),”, “Inoculum: spore” for “Inoculum: spores”, “of Septoria tritici” for “of A. alternata”, “After 7” for “After 5”

## COC(=N)c1cc(Cl)nnc1Oc1cccc(C2CC2)c1 [25-01, methyl 6-chloro-3-(3-cyclopropylphenoxy)pyridazine-4-carboximidate]
[1]
  chromatographic logP: 3.08

## COC(=N)c1cc(Cl)nnc1Oc1cccc(C(F)(F)F)c1 [25-02, methyl 6-chloro-3-[3-(trifluoromethyl)phenoxy]pyridazine-4-carboximidate]
[1]
  chromatographic logP: 3

## Cc1cc(C(N)=NOCC=Cc2ccc3c(ccn3C)c2)c(Oc2cccc(C(F)(F)F)c2)nn1 [30-01, 6-methyl-N′-[3-(1-methylindol-5-yl)allyloxy]-3-[3-(trifluoromethyl)phenoxy]pyridazine-4-carboxamidine]
[1]
  chromatographic logP: 3.92

## Cc1ccc(CC2CON=C(c3cc(C)nnc3Oc3cccc(Cl)c3F)N2)c(Cl)c1 (stereo not drawn) [I-302]
[2]
  pest or weed control at 500 ppm: 90 to 100%
[3]
  pest or weed control at 500 ppm: 90 to 100%
[4]
  pest or weed control at 500 ppm: 90 to 100%
[5]
  pest or weed control at 500 ppm: 90 to 100%
[6]
  pest or weed control at 500 ppm: 90 to 100%
[7]
  pest or weed control at 500 ppm: 90 to 100%
[8]
  inhibition at 20 ppm: 90 to 100%
[9]
  inhibition at 20 ppm: 90 to 100%
[10]
  inhibition at 20 ppm: 90 to 100%
